Assay results from publication PMC8528301 (PLoS ONE, 2021).
Several values for one entry are separate records, joined by “and”; a condition that tells them apart may be missing. Identical values can stand only once. Like-named read-outs stand apart in the source and are kept apart here.

Assay: Dasatinib single oral gavage plasma pharmacokinetics (NLME modeling)
Assay type: in vivo, mouse
Parameters: DV (dasatinib plasma concentration): unit: ng/mL
Settings: for CL/F: both sexes, po, read-out: Cl_pop (apparent oral clearance) (converted); for CL/F / concentration at 0.5 h / concentration at 1 h / concentration at 2 h / concentration at 8 h / concentration at 16 h / concentration at […] / concentration at 4 h / concentration at 24 h: C57BL/6, mouse, plasma, 10 mg/kg; for concentration at 0.5 h / concentration at 1 h / concentration at 2 h / concentration at 8 h / concentration at 16 h / concentration at […] / concentration at 4 h / concentration at 24 h: oral, read-out: DV (dasatinib plasma concentration)
Procedure: Dasatinib was dissolved in 80 mMol/L sodium citrate buffer pH 3.1 for a total dasatinib concentration of 1 mg/mL and a 10 mL/kg gavage volume. Mice were grouped by VD3 status and sex and studied at 8 and 10 weeks of age. […] Saphenous and submandibular bleeds of mice using a single-use Sarstedt Minivette POCT 50 μL K3 EDTA capillary device are humane methods for obtaining small volumes of blood over multiple time points, preferrable to retroorbital bleeds, and were approved for this study that required blood sampling at multiple time points (three) after dasatinib administration. Each mouse was sampled three times on two separate dasatinib dosing occasions. Blood was collected into the Minivette capillary device, dispensed into a microtube and vortexed to mix the anticoagulant. The tubes were then immediately centrifuged to plasma and stored on dry ice for the remainder of the study. At the end of the in vivo procedures, plasma samples were transferred from dry ice and placed at -80°C until analysis.
Total plasma dasatinib concentrations were assessed using a sensitive and specific liquid chromatography, tandem mass spectrometry (LC-MS/MS) assay. Dasatinib stock solutions were prepared in acetonitrile and used to spike matrix calibrators and quality controls. Protein precipitation was performed using a 1:4 ratio of plasma to 15 ng/mL erlotinib HCl (St. Jude Compound Management, S00004053, Inventory ID: SJCH0042996, Purity > 95%) in methanol as an internal standard. A 3μL aliquot of the extracted supernatant was injected onto a Shimadzu LC-20ADXR high performance liquid chromatography system via a LEAP CTC PAL autosampler. The LC separation was performed using a Phenomenex Kinetex 2.6 um EVO C18 (100A, 50 x 2.1 mm) maintained at 50°C with gradient elution at a flow rate of 0.5 mL/min. The binary mobile phase gradient began with a linear increase to 100% B in 4.0 minutes. The column was then rinsed for 2.0 minutes at 100% B and then equilibrated at the initial conditions for two minutes for a total run time of eight minutes.
Analyte and IS were detected with tandem mass spectrometry using a SCIEX API 5500 Q-TRAP in the positive ESI mode with monitoring of the following mass transitions: Dasatinib 488.20 -> 401.00, erlotinib HCl 394.20 -> 250.10.
The experimental bioanalytical runs were all found to be acceptable for the purpose of a singlicate non-GLP, preclinical PK assessment. A linear model (1/X^2 weighting) fit the calibrators across the 1.00 to 500 ng/mL range, with a correlation coefficient (R) of […]. The lower limit of quantification (LLOQ), defined as a peak area signal-to-noise ratio of 5 or greater verses a matric blank with IS, was 1.00 ng/mL.
§ To evaluate the plasma pharmacokinetics (PK) of dasatinib af t er two separate single oral gavage doses of solution, separated by a washout period, in normal C57BL/6 mice […]
vs 10wk) on the plasma PK of oral dasatinib us ing a nonlinear mixed effects (NLME) PK modeling […]
2. 1 In Vivo Pharmacokinetic (PK) Study
The total plasma PK of dasatinib in C57BL/6 mice (The Jackson Laboratory) was assessed after single oral gavages of 10 mg/kg of dasatinib free base equivalents. Dasatinib (St. Jude Compound […]
sodium citrate buffer pH 3.1 for a final dasatinib concentration of 1 mg/mL for a 10 mL/kg gavage volume.
Mice were grouped by Vitamin D dietary sufficiency status and sex, and studied at 8 and 10 weeks of age. Survival saphenous and facial vein bleeding of mice was conducted using IACUC-approved […]
was sampled 3 times on the 2 separate occasions of dasatinib dosing. […] The tubes were then immediately centrifuged to plasma, and stored on dry ice for […]

Cc1nc(Nc2ncc(C(=O)Nc3c(C)cccc3Cl)s2)cc(N2CCN(CCO)CC2)n1 [dasatinib]
DV (dasatinib plasma concentration) (GROUP:VD3 Suf, SEX:M, OCC 2, time 0.25): 101.99 and 116.5 | DV (dasatinib plasma concentration) (GROUP:VD3 Suf, SEX:M, OCC 2, time 0.5): 207.19 and 212.25 | DV (dasatinib plasma concentration) (GROUP:VD3 Suf, SEX:M, OCC 2, time 2): 297.27 and 320.75 | DV (dasatinib plasma concentration) (GROUP:VD3 Suf, SEX:M, OCC 2, time 8): 10.361 and 16.431 | DV (dasatinib plasma concentration) (GROUP:VD3 Suf, SEX:M, OCC 2, time 24): 3.3895 and 3.3706 | CL/F (Base Model, 10 mg/kg oral gavage): 112 mL/min/kg | CL/F (Final Model): 119 mL/min/kg | concentration at 0.5 h (female, GROUP:VD3 Def, SEX:F, OCC 1, time 0.5): 149 ng/mL | concentration at 1 h (female, GROUP:VD3 Def, SEX:F, OCC 1, time 1): 278 ng/mL | concentration at 2 h (female, GROUP:VD3 Def, SEX:F, OCC 1, time 2): 435 ng/mL | concentration at 8 h (female, GROUP:VD3 Def, SEX:F, OCC 1, time 8): 25.2 ng/mL | concentration at 16 h (female, GROUP:VD3 Def, SEX:F, OCC 1, time 16): 4.02 ng/mL | concentration at […] (female, GROUP:VD3 Def, SEX:F, OCC 2, time 0.125): 49 ng/mL | concentration at […] (female, GROUP:VD3 Def, SEX:F, OCC 2, time 0.25): 146 ng/mL | concentration at 0.5 h (female, GROUP:VD3 Def, SEX:F, OCC 2, time 0.5): 188 ng/mL | concentration at 16 h (female, GROUP:VD3 Def, SEX:F, OCC 2, time 16): 4.35 ng/mL | concentration at […] (female, GROUP:VD3 Suf, SEX:F, OCC 1, time 0.25): 167 ng/mL | concentration at 0.5 h (female, GROUP:VD3 Suf, SEX:F, OCC 1, time 0.5): 231 ng/mL | concentration at 2 h (female, GROUP:VD3 Suf, SEX:F, OCC 1, time 2): 405 ng/mL | concentration at 4 h (female, GROUP:VD3 Suf, SEX:F, OCC 1, time 4): 54.1 ng/mL | concentration at 8 h (female, GROUP:VD3 Suf, SEX:F, OCC 1, time 8): 22 ng/mL | concentration at 16 h (female, GROUP:VD3 Suf, SEX:F, OCC 1, time 16): 2.06 ng/mL | concentration at 0.5 h (female, GROUP:VD3 Suf, SEX:F, OCC 2, time 0.5): 137 ng/mL | concentration at 1 h (female, GROUP:VD3 Suf, SEX:F, OCC 2, time 1): > 500 ng/mL | concentration at 2 h (female, GROUP:VD3 Suf, SEX:F, OCC 2, time 2): 441 ng/mL | concentration at 4 h (female, GROUP:VD3 Suf, SEX:F, OCC 2, time 4): 64 ng/mL | concentration at 16 h (female, GROUP:VD3 Suf, SEX:F, OCC 2, time 16): 8.15 ng/mL | concentration at […] (male, GROUP:VD3 Def, SEX:M, OCC 1, time 0.25): 145 ng/mL | concentration at 0.5 h (male, GROUP:VD3 Def, SEX:M, OCC 1, time 0.5): 194 ng/mL | concentration at 2 h (male, GROUP:VD3 Def, SEX:M, OCC 1, time 2): > 500 ng/mL | concentration at 4 h (male, GROUP:VD3 Def, SEX:M, OCC 1, time 4): 87.8 ng/mL | concentration at 8 h (male, GROUP:VD3 Def, SEX:M, OCC 1, time 8): 16.2 ng/mL | concentration at 24 h (male, GROUP:VD3 Def, SEX:M, OCC 1, time 24): 6.39 ng/mL | concentration at 0.5 h (male, GROUP:VD3 Def, SEX:M, OCC 2, time 0.5): 178 ng/mL | concentration at 1 h (male, GROUP:VD3 Def, SEX:M, OCC 2, time 1): > 500 ng/mL | concentration at 2 h (male, GROUP:VD3 Def, SEX:M, OCC 2, time 2): 287 ng/mL | concentration at 4 h (male, GROUP:VD3 Def, SEX:M, OCC 2, time 4): 83.2 ng/mL | concentration at 8 h (male, GROUP:VD3 Def, SEX:M, OCC 2, time 8): 15.5 ng/mL | concentration at 16 h (male, GROUP:VD3 Def, SEX:M, OCC 2, time 16): 11.1 ng/mL | concentration at […] (male, GROUP:VD3 Suf, SEX:M, OCC 1, time 0.125): 49.4 ng/mL | concentration at […] (male, GROUP:VD3 Suf, SEX:M, OCC 1, time 0.25): 110 ng/mL | concentration at 2 h (male, GROUP:VD3 Suf, SEX:M, OCC 1, time 2): 350 ng/mL | concentration at 4 h (male, GROUP:VD3 Suf, SEX:M, OCC 1, time 4): 147 ng/mL | concentration at […] (male, GROUP:VD3 Suf, SEX:M, OCC 2, time 0.25): 107 ng/mL | concentration at 0.5 h (male, GROUP:VD3 Suf, SEX:M, OCC 2, time 0.5): 316 ng/mL | concentration at 1 h (male, GROUP:VD3 Suf, SEX:M, OCC 2, time 1): > 500 ng/mL | concentration at 2 h (male, GROUP:VD3 Suf, SEX:M, OCC 2, time 2): 366 ng/mL | concentration at 8 h (male, GROUP:VD3 Suf, SEX:M, OCC 2, time 8): 20.4 ng/mL | concentration at 24 h (male, GROUP:VD3 Suf, SEX:M, OCC 2, time 24): 1.88 ng/mL
